What was measured:
[1] = test system: absolute neutrophil count (ANC); assay: Degree of neutropenia in phase I studies of S-CKD602 and NL-CKD602; assay type: in vivo, human; conditions: patients with refractory solid tumors
Description: (§1) To examine the relationship between S-CKD602 PK and monocytes (MO) in patients, we evaluated the degree of neutropenia and monocytopenia as part of phase I studies of S-CKD602 and non-liposomal CKD-602 (NL-CKD602) in patients with refractory solid tumors. After administration of NL-CKD602, the % decrease at nadir in absolute neutrophil count (ANC) and MO were 86±11% and 87±12%, respectively (P>0.05). For NL-CKD602, the ratio of % decrease in MO to ANC was 1.1±0.4. After administration of S-CKD602, the % decrease at nadir in ANC and MO were 42±30% and 58±34%, respectively (P=0.001). For S-CKD602, the ratio of % decrease in MO to ANC was 2.1±2.0. The relationship between the % decrease in MO at nadir and CL of encapsulated CKD-602 and the release of CKD-602 from S-CKD602 in plasma are presented in FIGS. 3 and 4, respectively. […] The CL of encapsulated drug and release of drug from the liposome in plasma is related to a reduction in MO. […] Consistent with the PK-PD interaction between S-CKD602 and MO we also have reported that decreased DOXIL® CL from cycle 1 to 3 is related to a reduction in MO during each subsequent cycle (Gabizon et al., (1994) Cancer Res. 54: 987-992; La-Beck et al., (2009) J. Clin. Oncol. 27(15S)).

monocytes (MO) = assay: Degree of monocytopenia in phase I studies of S-CKD602 and NL-CKD602; assay type: in vivo, human; conditions: patients with refractory solid tumors
Description: as §1

## CC[C@@]1(O)C(=O)OCc2c1cc1n(c2=O)Cc2c-1nc1ccccc1c2CCNC(C)C [NL-CKD602]
[1]
  % decrease at nadir in absolute neutrophil count (ANC): 86±11%
Monocytes (MO)
  % decrease at nadir in monocytes (MO): 87±12%
  ratio of % decrease in MO to ANC: 1.1±0.4

Reference: patent US20130115271A1, “PREDICTORS OF PHARMACOKINETIC AND PHARMACODYNAMIC DISPOSITION OF CARRIER-MEDIATED AGENTS” (THE UNIVERSITY OF NORTH CAROLINA AT CHAPEL HILL, priority 2010, published 2013)
